Legend:
Assay type in all cases: in vivo
[1] = system: sweet corn variety WH0809; assay: Sugar content of sweet corn kernels (Example 2); conditions: for Sugar content Raffanose: treated check 0.51; for Sugar content Maltose: treated check 0.61; for Sugar content Fructose: treated check 1.04; for Sugar content Glucose: treated check 1.91; for Sugar content Sucrose: treated check 10.72
Method: (§1) A field study was conducted at Greenback, TN to investigate POST applications of several herbicide inhibitors of photosynthesis for sweet corn safety and for changes in carbohydrate content in the kernels of sweet corn among treatments. Treatments included bentazon at 1120 and 2240 g ai/ha, linuron at 280 and 560 g ai/ha, metribuzin at 105 and 210 g ai/ha, and bromoxynil at 560 and 1120 g ai/ha. All treatments included a PRE application of a common residual corn herbicide in order to maintain weed free conditions. […] Sweet corn was harvested from the center two rows of each four row plot and weighed in the husk. Eight ears of corn were harvested from each plot and were pooled over replicates for analysis of key carbohydrates which included the sugars sucrose, fructose, glucose, maltose, and raffanose.

[2] = system: sweet corn variety WH0809; assay: Visual injury of sweet corn after POST herbicide inhibitors of photosynthesis (Example 2)
Method: as §1

[3] = system: sweet corn variety WH0809; assay: Sweet corn yield, harvested and weighed in the husk (Example 2); conditions: treated check 9758.4
Method: as §1

[4] = 1120 g ai/ha + COC 1% v/v POST, 1st of 3 Injury columns, rating date not given
[5] = 1120 g ai/ha + COC 1% v/v POST, 2nd of 3 Injury columns (agrees with 14 DAT of b67)
[6] = 1120 g ai/ha + COC 1% v/v POST, 3rd of 3 Injury columns, rating date not given

How did the “Sugar content Raffanose” value ([1]; 560 g ai/ha + COC 1% v/v POST) turn out when `N#Cc1cc(Br)c(O)c(Br)c1` [BROMOXYNIL, bromoxynil] was run?
Its value is 0.77 mg/g dw.

What about the “Sugar content Maltose” value ([1]; 560 g ai/ha + COC 1% v/v POST) of the same compound?
The value was 0.88 mg/g dw.

And the “Sugar content Fructose” value ([1]; 560 g ai/ha + COC 1% v/v POST)?
Its value is 1.74 mg/g dw.

What about the “Sugar content Glucose” value ([1]; 560 g ai/ha + COC 1% v/v POST) of the same compound?
Its value is 3.07 mg/g dw.

And the “Sugar content Sucrose” value ([1]; 560 g ai/ha + COC 1% v/v POST)?
Its value is 15.56 mg/g dw.

And the “Sugar content Raffanose” value ([1]; 1120 g ai/ha + COC 1% v/v POST)?
Its value is 0.54 mg/g dw.

And the “Sugar content Maltose” value ([1]; 1120 g ai/ha + COC 1% v/v POST)?
Its value is 0.60 mg/g dw.

And the “Sugar content Fructose” value ([1]; 1120 g ai/ha + COC 1% v/v POST)?
Its value is 1.77 mg/g dw.

And the “Sugar content Glucose” value ([1]; 1120 g ai/ha + COC 1% v/v POST)?
The value was 2.70 mg/g dw.

And the “Sugar content Sucrose” value ([1]; 1120 g ai/ha + COC 1% v/v POST)?
Its value is 14.50 mg/g dw.

What about the Injury ([2]; 560 g ai/ha + COC 1% v/v POST, 1st of 3 Injury columns, rating date not given) of the same compound?
Its Injury is 37%.

What about the Injury ([2]; 560 g ai/ha + COC 1% v/v POST, 2nd of 3 Injury columns (agrees with 14 DAT of b67)) of the same compound?
The Injury was 35%.

And the Injury ([2]; 560 g ai/ha + COC 1% v/v POST, 3rd of 3 Injury columns, rating date not given)?
The Injury was 27%.

What about the Injury [2, 4] of the same compound?
Its Injury is 45%.

What about the Injury [2, 5] of the same compound?
The Injury was 47%.

And the Injury [2, 6]?
The Injury was 35%.

And the YIELD ([3]; 560 g ai/ha + COC 1% v/v POST)?
Its YIELD is 9436.2 kg.

What about the YIELD ([3]; 1120 g ai/ha + COC 1% v/v POST) of the same compound?
The YIELD was 9142.6 kg.

For `CC(C)N1C(=O)c2ccccc2NS1(=O)=O` [BENTAZON, bentazon], which “Sugar content Raffanose” value ([1]; 1120 g ai/ha + COC 1% v/v POST) is on record?
Its value is 0.56 mg/g dw.

What about the “Sugar content Maltose” value ([1]; 1120 g ai/ha + COC 1% v/v POST) of the same compound?
The value was 0.96 mg/g dw.

And the “Sugar content Fructose” value ([1]; 1120 g ai/ha + COC 1% v/v POST)?
The value was 1.69 mg/g dw.

And the “Sugar content Glucose” value ([1]; 1120 g ai/ha + COC 1% v/v POST)?
The value was 2.65 mg/g dw.

And the “Sugar content Sucrose” value ([1]; 1120 g ai/ha + COC 1% v/v POST)?
The value was 13.18 mg/g dw.

What about the “Sugar content Raffanose” value ([1]; 2240 g ai/ha + COC 1% v/v POST) of the same compound?
The value was 0.84 mg/g dw.

What about the “Sugar content Maltose” value ([1]; 2240 g ai/ha + COC 1% v/v POST) of the same compound?
The value was 1.26 mg/g dw.

And the “Sugar content Fructose” value ([1]; 2240 g ai/ha + COC 1% v/v POST)?
Its value is 1.78 mg/g dw.

What about the “Sugar content Glucose” value ([1]; 2240 g ai/ha + COC 1% v/v POST) of the same compound?
The value was 3.41 mg/g dw.

What about the “Sugar content Sucrose” value ([1]; 2240 g ai/ha + COC 1% v/v POST) of the same compound?
The value was 18.67 mg/g dw.

And the Injury [2, 4]?
Its Injury is 5%.

And the Injury [2, 5]?
The Injury was 17%.

What about the Injury [2, 6] of the same compound?
Its Injury is 0%.

And the Injury ([2]; 2240 g ai/ha + COC 1% v/v POST, 1st of 3 Injury columns, rating date not given)?
Its Injury is 12%.

What about the Injury ([2]; 2240 g ai/ha + COC 1% v/v POST, 2nd of 3 Injury columns (agrees with 14 DAT of b67)) of the same compound?
The Injury was 10%.

And the Injury ([2]; 2240 g ai/ha + COC 1% v/v POST, 3rd of 3 Injury columns, rating date not given)?
Its Injury is 2%.

And the YIELD ([3]; 1120 g ai/ha + COC 1% v/v POST)?
Its YIELD is 10317 kg.

And the YIELD ([3]; 2240 g ai/ha + COC 1% v/v POST)?
The YIELD was 10565.6 kg.

— patent US20110053773A1, “METHODS OF IMPROVING NUTRITIONAL VALUE OF PLANTS” (UNIVERSITY OF TENNESSEE RESEARCH FOUNDATION, priority 2009, published 2011)
